The text below walks through data of patent US10231967B2, “Compounds and their use as BACE inhibitors” (ASTRAZENECA AB, priority 2010, dated 2019).

For the first assay, the system named is sAPPβ release in SH-SY5Y cells. The experiment in a line: sAPPβ release assay. Format: cell-based. The note with it: Homo sapiens, SH-SY5Y, 17 h, compounds incubated 17 h, MSD detection. How it is done:
Thaw cells and seed at a conc. of around 10000 cells/well in DMEM/F-12 with Glutamax, 10% FCS and 1% non-essential amino acids to a 384-well tissue culture treated plate, 100 μL cell susp/well. […] The cell medium was removed, followed by addition of 30 μL compound diluted in DMEM/F-12 with Glutamax, 10% FCS, 1% non-essential amino acids and 1% PeSt to a final conc. of 1% DMSO. The compounds were incubated with the cells for 17 h (overnight) at 37° C., 5% CO2. Meso Scale Discovery (MSD) plates were used for the detection of sAPPβ release. MSD sAPPβ plates were blocked in 1% BSA in Tris wash buffer (40 μL/well) for 1 h on shake at r.t. and washed 1 time in Tris wash buffer (40 μL/well). 20 μL of medium was transferred to the pre-blocked and washed MSD sAPPβ microplates, and the cell plates were further used in an ATP assay to measure cytotoxicity. The MSD plates were incubated with shaking at r.t. for 2 h and the media discarded. 10 μL detection antibody was added (1 nM) per well followed by incubation with shaking at r.t. for 2 h and then discarded. 40 μL Read Buffer was added per well and the plates were read in a SECTOR Imager.
For `CO[C@H]1CC[C@]2(CC1)Cc1ccc(-c3cncc(COCC(F)(F)F)c3)cc1C21N=C(C)C(N)=N1` (some centres unmarked) [Example 82, (1r,4r)-4-Methoxy-5″-methyl-6′-{5-[(2,2,2-trifluoroethoxy)methyl]pyridin-3-yl}-3′H-dispiro[cyclohexane-1,2′-indene-1′,2″-imidazol]-4″-amine], the 50% inhibitory concentration (IC50) (as a rule, the concentration that inhibits the measured activity by half) is 36 nM. Turning to `CO[C@H]1CC[C@]2(CC1)Cc1ccc(-c3cncc(C(F)(F)F)c3)cc1[C@@]21N=C(C)C(N)=N1` [Example 84, (1r,1′R,4R)-4-Methoxy-5″-methyl-6′-[5-(trifluoromethyl)pyridin-3-yl]-3′H-dispiro[cyclohexane-1,2′-indene-1′,2″-imidazol]-4″-amine], the concentration for half-maximal inhibition (IC50) was 0.99 nM. Regarding `CO[C@H]1CC[C@]2(CC1)Cc1ccc(-c3cc(C#N)cc(C(F)(F)F)c3)cc1[C@@]21N=C(C)C(N)=N1` [Example 85], the half-inhibitory concentration (IC50) was determined as 0.8 nM. Compound `COc1cc(-c2ccc3c(c2)[C@@]2(N=C(C)C(N)=N2)[C@]2(CC[C@H](OC)CC2)C3)cc(C#N)c1F` [Example 87, 5-[(1r,1′R,4R)-4″-Amino-4-methoxy-5″-methyl-3′H-dispiro[cyclohexane-1,2′-indene-1′,2″-imidazol]-6′-yl]-2-fluoro-3-methoxybenzonitrile] displayed an IC50 of 0.93 nM. The IC50 values of the last two compounds are within 1.5-fold of each other.

`CO[C@H]1CC[C@]2(CC1)Cc1ccc(-c3cc(F)cc(F)c3)cc1[C@@]21N=C(C)C(N)=N1` [Example 88, (1r,1′R,4R)-6′-(3,5-difluorophenyl)-4-methoxy-5″-methyl-3′H-dispiro[cyclohexane-1,2′-indene-1′,2″-imidazol]-4″-amine] returned an IC50 of 4.8 nM. `COc1cccc(-c2ccc3c(c2)[C@@]2(N=C(C)C(N)=N2)[C@]2(CC[C@H](OC)CC2)C3)c1F` [Example 89, (1r,1′R,4R)-6′-(2-Fluoro-3-methoxyphenyl)-4-methoxy-5″-methyl-3′H-dispiro[cyclohexane-1,2′-indene-1′,2″-imidazol]-4′″-amine] yielded an IC50 of 1.7 nM.

The compound `CO[C@H]1CC[C@]2(CC1)Cc1ccc(-c3cc(Br)cc(C#N)c3)cc1C21N=C(C)C(N)=N1` (some centres unmarked) [Example 93, 3-[(1r,4r)-4″-Amino-4-methoxy-5″-methyl-3′H-dispiro[cyclohexane-1,2′-indene-1′,2″-imidazol]-6′-yl]-5-bromobenzonitrile] came in with an IC50 of 0.56 nM. Against the preceding compound, the IC50 is about 3-fold lower.

Regarding `CCc1cc(C#N)cc(-c2ccc3c(c2)C2(N=C(C)C(N)=N2)[C@]2(CC[C@H](OC)CC2)C3)c1` (some centres unmarked) [Example 95, 3-[(1r,4r)-4″-Amino-4-methoxy-5″-methyl-3′H-dispiro[cyclohexane-1,2′-indene-1′,2″-imidazol]-6′-yl]-5-ethylbenzonitrile], the IC50 was 3.6 nM.

With `CO[C@H]1CC[C@]2(CC1)Cc1ccc(-c3ccc(F)cc3F)cc1[C@@]21N=C(C)C(N)=N1` [Example 103], the 50% inhibitory concentration (IC50) was determined as 14 nM. In the case of `CO[C@H]1CC[C@]2(CC1)Cc1ccc(-c3cccc(Cl)c3Cl)cc1[C@@]21N=C(C)C(N)=N1` [Example 104, (1r,1′R,4R)-6′-(2,3-dichlorophenyl)-4-methoxy-5″-methyl-3′H-dispiro[cyclohexane-1,2′-indene-1′,2″-imidazol]-4″-amine], the IC50 came to 34 nM. In turn, `CC1=NC2(N=C1N)c1cc(-c3cc(F)cc(F)c3)ccc1C[C@]21CC[C@@H](OC(F)F)CC1` (some centres unmarked) [Example 109] displayed an IC50 of 28 nM. As to `CO[C@H]1CC[C@]2(CC1)Cc1ccc(C#CC3CCC3)cc1C21N=C(C)C(N)=N1` (some centres unmarked) [Example 112, (1r,4r)-6′-(Cyclobutylethynyl)-4-methoxy-5″-methyl-3′H-dispiro[cyclohexane-1,2′-indene-1′,2″-imidazol]-4″-amine], 2 nM corresponded to half-maximal inhibition (IC50). Turning to `CO[C@H]1CC[C@]2(CC1)Cc1ccc(C#CC(C)C)cc1C21N=C(C)C(N)=N1` (some centres unmarked) [Example 113, (1r,4r)-4-Methoxy-5″-methyl-6′-(3-methylbut-1-yn-1-yl)-3′H-dispiro[cyclohexane-1,2′-indene-1′,2″-imidazol]-4″-amine], the IC50 was determined as 1.6 nM. The IC50 values of the last two compounds are within 1.5-fold of each other.

Regarding `[2H]C([2H])([2H])C#Cc1cncc(-c2ccc3c(c2)[C@@]2(N=C(C)C(N)=N2)[C@]2(CC[C@H](OC)CC2)C3)c1` [Example 114, (1r,1′R,4R)-4-Methoxy-5″-methyl-6′-{5-[(^2H3)prop-1-yn-1-yl]pyridin-3-yl}-3′H-dispiro[cyclohexane-1,2′-indene-1′,2″-imidazol]-4″-amine], the half-inhibitory concentration (IC50) turned out to be 0.14 nM.

Still in this assay, the particulars now being: Homo sapiens, compounds incubated 17 h, MSD detection.
For `CO[C@H]1CC[C@]2(CC1)Cc1ccc(-c3cncc(C)c3)cc1[C@@]21N=C(C)C(N)=N1` [Example 83, (1r,1′R,4R)-4-Methoxy-5″-methyl-6′-(5-methylpyridin-3-yl)-3′H-dispiro[cyclohexane-1,2′-indene-1′,2″-imidazol]-4″-amine], the midpoint of inhibition, the IC50, lay at 2.9 nM. `CO[C@H]1CC[C@]2(CC1)Cc1ccc(-c3cc(C#N)cc(C(F)F)c3)cc1[C@@]21N=C(C)C(N)=N1` [Example 86, 3-[(1r,1′R,4R)-4″-Amino-4-methoxy-5-methyl-3′H-dispiro[cyclohexane-1,2′-indene-1′,2″-imidazol]-6′-yl]-5-(difluoromethyl)benzonitrile]: the IC50 was found to be 1.1 nM. In turn, `CO[C@H]1CC[C@]2(CC1)Cc1ccc(-c3ccccc3)cc1[C@@]21N=C(C)C(N)=N1` [Example 90, (1r,1′R,4R)-4-Methoxy-5″-methyl-6′-phenyl-3′H-dispiro[cyclohexane-1,2′-indene-1′,2″-imidazol]-4″-amine] returned a half-maximal inhibitory concentration (IC50) of 14 nM. In the case of `COc1cc(C#N)cc(-c2ccc3c(c2)C2(N=C(C)C(N)=N2)[C@]2(CC[C@H](OC)CC2)C3)c1` (some centres unmarked) [Example 91, 3-[(1r,4r)-4″-Amino-4-methoxy-5″-methyl-3′H-dispiro[cyclohexane-1,2′-indene-1′,2″-imidazol]-6′-yl]-5-methoxybenzonitrile], the half-inhibitory concentration (IC50) was found to be 0.62 nM. In turn, `COCc1cc(C#N)cc(-c2ccc3c(c2)C2(N=C(C)C(N)=N2)[C@]2(CC[C@H](OC)CC2)C3)c1` (some centres unmarked) [Example 96, 3-[(1r,4r)-4″-Amino-4-methoxy-5″-methyl-3′H-dispiro[cyclohexane-1,2′-indene-1′,2″-imidazol]-6′-yl]-5-(methoxymethyl)benzonitrile] gave an IC50 of 3.5 nM. This IC50 lies about 5.6-fold higher than the previous one.

As for `COc1ccc(F)c(-c2ccc3c(c2)[C@@]2(N=C(C)C(N)=N2)[C@]2(CC[C@H](OC)CC2)C3)c1` [Example 98, (1r,1′R,4R)-6′-(2-Fluoro-5-methoxyphenyl)-4-methoxy-5″-methyl-3′H-dispiro[cyclohexane-1,2′-indene-1′,2″-imidazol]-4′″-amine], the midpoint of inhibition, the IC50, lay at 0.82 nM. In turn, `CO[C@H]1CC[C@]2(CC1)Cc1ccc(-c3cc(F)ccc3F)cc1[C@@]21N=C(C)C(N)=N1` [Example 99, (1r,1′R,4R)-6′-(2,5-Difluorophenyl)-4-methoxy-5′-methyl-3′H-dispiro[cyclohexane-1,2′-indene-1′,2″-imidazol]-4″-amine] yielded an IC50 of 5.7 nM. As to `CO[C@H]1CC[C@]2(CC1)Cc1ccc(-c3cc(Cl)c(F)c(C#N)c3)cc1[C@@]21N=C(C)C(N)=N1` [Example 100, 5-[(1r,1′R,4R)-4″-amino-4-methoxy-5″-methyl-3′H-dispiro[cyclohexane-1,2′-indene-1′,2″-imidazol]-6′-yl]-3-chloro-2-fluorobenzonitrile], the half-maximal inhibitory concentration (IC50) was determined as 0.59 nM. `CO[C@H]1CC[C@]2(CC1)Cc1ccc(-c3cccc(F)c3F)cc1[C@@]21N=C(C)C(N)=N1` [Example 101] returned a 50% inhibitory concentration (IC50) of 6.3 nM. Consider `CO[C@H]1CC[C@]2(CC1)Cc1ccc(-c3cc(C#N)ccc3F)cc1[C@@]21N=C(C)C(N)=N1` [Example 102, 3-[(1r,1′R,4R)-4″-Amino-4-methoxy-5″-methyl-3′H-dispiro[cyclohexane-1,2′-indene-1′,2″-imidazol]-6′-yl]-4-fluorobenzonitrile], for which half-maximal inhibition (IC50) required 2.5 nM. Same read-out and setting: to `CC1=NC2(N=C1N)c1cc(-c3cncc(C(F)(F)F)c3)ccc1C[C@]21CC[C@@H](OC(F)F)CC1` (some centres unmarked) [Example 107] belongs 7.9 nM. Same read-out and setting: as for `CC1=NC2(N=C1N)c1cc(-c3cc(Cl)cc(C#N)c3)ccc1C[C@]21CC[C@@H](OC(F)F)CC1` (some centres unmarked) [Example 108, 3-[(1r,4r)-4″-Amino-4-(difluoromethoxy)-5″-methyl-3′H-dispiro[cyclohexane-1,2′-indene-1′,2″-imidazol]-6′-yl]-5-chlorobenzonitrile], the figure is 1.8 nM; as for `COc1cc(-c2ccc3c(c2)C2(N=C(C)C(N)=N2)[C@]2(CC[C@H](OC(F)F)CC2)C3)cc(C#N)c1F` (some centres unmarked) [Example 110, 5-[(1r,4r)-4″-Amino-4-(difluoromethoxy)-5″-methyl-3′H-dispiro[cyclohexane-1,2′-indene-1′,2″-imidazol]-6′-yl]-2-fluoro-3-methoxybenzonitrile], 4 nM. Same read-out and setting: as for `CC#Cc1cncc(-c2ccc3c(c2)C2(N=C(C)C(N)=N2)[C@]2(CC[C@](C)(OC)CC2)C3)c1` (some centres unmarked) [Example 111, (1r,4r)-4-Methoxy-4,5″-dimethyl-6′-[5-(prop-1-yn-1-yl)pyridin-3-yl]-3′H-dispiro[cyclohexane-1,2′-indene-1′,2″-imidazol]-4″-amine], the figure is 31 nM. Compound `CC1=NC2(N=C1N)c1cc(-c3cc(F)cc(C#N)c3)ccc1CC21CCC(=O)CC1` (centres unmarked) [Example 115, 3-(4″-Amino-5″-methyl-4-oxodispiro[cyclohexane-1,2′-[1H]indene-1′(3′H),2″-[2H]imidazol]-6′-yl)-5-fluorobenzonitrile] showed an IC50 of 293 nM. This IC50 lies about 9.5-fold higher than the previous one.
